In brackets after ≈: the same amount, converted by molar mass.
How the values were obtained:
Type in all cases: functional
Streptococcus pneumoniae [1] = experiment: Antibacterial activity against Streptococcus pneumoniae serotype 33 assessed as percent susceptible isolates by broth microdilution method
Streptococcus pneumoniae [2] = experiment: Antibacterial activity against Streptococcus pneumoniae serotype 15A assessed as percent susceptible isolates by broth microdilution method
Streptococcus pneumoniae [3] = experiment: Antibacterial activity against Streptococcus pneumoniae serotype 3 by broth microdilution method
Streptococcus pneumoniae [4] = experiment: Antibacterial activity against Streptococcus pneumoniae serotype 19F assessed as percent susceptible isolates by broth microdilution method
Streptococcus pneumoniae [5] = experiment: Antibacterial activity against Streptococcus pneumoniae serotype 15A assessed as percent resistant isolates by broth microdilution method
Streptococcus pneumoniae [6] = experiment: Antibacterial activity against Streptococcus pneumoniae serotype 33 assessed as percent resistant isolates by broth microdilution method
Streptococcus pneumoniae [7] = experiment: Antibacterial activity against Streptococcus pneumoniae serotype 3 assessed as percent resistant isolates by broth microdilution method
Streptococcus pneumoniae [8] = experiment: Antibacterial activity against Streptococcus pneumoniae serotype 19F assessed as percent resistant isolates by broth microdilution method
Streptococcus pneumoniae [9] = experiment: Antibacterial activity against Streptococcus pneumoniae serotype 22 by broth microdilution method
Streptococcus pneumoniae [10] = experiment: Antibacterial activity against Streptococcus pneumoniae serotype 35B assessed as percent susceptible isolates by broth microdilution method
Streptococcus pneumoniae [11] = experiment: Antibacterial activity against Streptococcus pneumoniae serotype 6A/C assessed as percent susceptible isolates by broth microdilution method
Streptococcus pneumoniae [12] = experiment: Antibacterial activity against Streptococcus pneumoniae serotype 23A assessed as percent resistant isolates by broth microdilution method
Streptococcus pneumoniae [13] = experiment: Antibacterial activity against Streptococcus pneumoniae serotype 6A/C by broth microdilution method
Streptococcus pneumoniae [14] = experiment: Antibacterial activity against Streptococcus pneumoniae serotype 22 assessed as percent resistant isolates by broth microdilution method
Streptococcus pneumoniae [15] = experiment: Antibacterial activity against Streptococcus pneumoniae serotype 19F by broth microdilution method
Streptococcus pneumoniae [16] = experiment: Antibacterial activity against Streptococcus pneumoniae serotype 22 assessed as percent susceptible isolates by broth microdilution method
Streptococcus pneumoniae [17] = experiment: Antibacterial activity against Streptococcus pneumoniae serotype 35B assessed as percent resistant isolates by broth microdilution method
Streptococcus pneumoniae [18] = experiment: Antibacterial activity against Streptococcus pneumoniae serotype 19A assessed as percent susceptible isolates by broth microdilution method
Streptococcus pneumoniae [19] = experiment: Antibacterial activity against Streptococcus pneumoniae serotype 19A assessed as percent resistant isolates by broth microdilution method
Streptococcus pneumoniae [20] = experiment: Antibacterial activity against Streptococcus pneumoniae serotype 3 assessed as percent susceptible isolates by broth microdilution method
Streptococcus pneumoniae [21] = experiment: Antibacterial activity against Streptococcus pneumoniae serotype 19A by broth microdilution method
Streptococcus pneumoniae [22] = experiment: Antibacterial activity against Streptococcus pneumoniae serotype 15A by broth microdilution method
Streptococcus pneumoniae [23] = experiment: Antibacterial activity against Streptococcus pneumoniae serotype 23A by broth microdilution method
Streptococcus pneumoniae [24] = experiment: Antibacterial activity against Streptococcus pneumoniae serotype 35B by broth microdilution method
Streptococcus pneumoniae [25] = experiment: Antibacterial activity against Streptococcus pneumoniae serotype 23A assessed as percent susceptible isolates by broth microdilution method
Streptococcus pneumoniae [26] = experiment: Antibacterial activity against Streptococcus pneumoniae serotype 6A/C assessed as percent resistant isolates by broth microdilution method
Streptococcus pneumoniae [27] = experiment: Antibacterial activity against Streptococcus pneumoniae serotype 33 by broth microdilution method
[28] = Streptococcus pneumoniae, serotype 35B

Question: `C[C@H]1COc2c(N3CCN(C)CC3)c(F)cc3c(=O)c(C(=O)O)cn1c23.C[C@H]1COc2c(N3CCN(C)CC3)c(F)cc3c(=O)c(C(=O)O)cn1c23.O` [LEVOFLOXACIN] was tested. Which % susceptible isolates (Streptococcus pneumoniae [1]) did it give?
Answer: 1%

Question: What about the percent susceptible isolates (Streptococcus pneumoniae [2]) of the same compound?
Answer: 100%

Question: What about the MIC90 (Streptococcus pneumoniae [3]) of the same compound?
Answer: 2 µg/mL

Question: What about the percent susceptible isolates (Streptococcus pneumoniae [4]) of the same compound?
Answer: 100%

Question: And the % resistant isolates (Streptococcus pneumoniae [5])?
Answer: 0%

Question: What about the % resistant isolates (Streptococcus pneumoniae [6]) of the same compound?
Answer: 0%

Question: And the % resistant isolates (Streptococcus pneumoniae [7])?
Answer: 0%

Question: What about the % resistant isolates (Streptococcus pneumoniae [8]) of the same compound?
Answer: 0%

Question: And the MIC90 (Streptococcus pneumoniae [9])?
Answer: 1 µg/mL

Question: And the % susceptible isolates (Streptococcus pneumoniae [10]; [28])?
Answer: 100%

Question: What about the percent susceptible isolates (Streptococcus pneumoniae [11]) of the same compound?
Answer: 100%

Question: What about the % resistant isolates (Streptococcus pneumoniae [12]) of the same compound?
Answer: 0%

Question: What about the MIC90 (Streptococcus pneumoniae [13]) of the same compound?
Answer: 1 µg/mL

Question: And the % resistant isolates (Streptococcus pneumoniae [14])?
Answer: 0%

Question: What about the MIC90 (Streptococcus pneumoniae [15]) of the same compound?
Answer: 1 µg/mL

Question: And the % susceptible isolates (Streptococcus pneumoniae [16])?
Answer: 100%

Question: What about the % resistant isolates (Streptococcus pneumoniae [17]) of the same compound?
Answer: 0%

Question: And the percent susceptible isolates (Streptococcus pneumoniae [18])?
Answer: 100%

Question: What about the % resistant isolates (Streptococcus pneumoniae [19]) of the same compound?
Answer: 0%

Question: And the % susceptible isolates (Streptococcus pneumoniae [20])?
Answer: 97%

Question: And the MIC90 (Streptococcus pneumoniae [21])?
Answer: 1 µg/mL

Question: And the MIC90 (Streptococcus pneumoniae [22])?
Answer: 1 µg/mL

Question: And the MIC90 (Streptococcus pneumoniae [23])?
Answer: 1 µg/mL

Question: And the MIC90 (Streptococcus pneumoniae [24])?
Answer: 1 µg/mL

Question: What about the percent susceptible isolates (Streptococcus pneumoniae [25]) of the same compound?
Answer: 100%

Question: What about the % resistant isolates (Streptococcus pneumoniae [26]) of the same compound?
Answer: 0%

Question: Which % susceptible isolates (Streptococcus pneumoniae [1]) does the source give for `CC1(C)S[C@@H]2[C@H](NC(=O)Cc3ccccc3)C(=O)N2[C@H]1C(=O)O` [PENICILLIN G] here?
Answer: 92%

Question: What about the percent susceptible isolates (Streptococcus pneumoniae [2]) of the same compound?
Answer: 7%

Question: And the MIC90 (Streptococcus pneumoniae [3])?
Answer: ≤ 0.03 µg/mL

Question: What about the percent susceptible isolates (Streptococcus pneumoniae [4]) of the same compound?
Answer: 33%

Question: And the % resistant isolates (Streptococcus pneumoniae [5])?
Answer: 0%

Question: What about the % resistant isolates (Streptococcus pneumoniae [6]) of the same compound?
Answer: 0%

Question: What about the % resistant isolates (Streptococcus pneumoniae [7]) of the same compound?
Answer: 0%

Question: What about the % resistant isolates (Streptococcus pneumoniae [8]; Streptococcus pneumoniae, serotype 19F) of the same compound?
Answer: 67%

Question: What about the MIC90 (Streptococcus pneumoniae [9]) of the same compound?
Answer: ≤ 0.03 µg/mL

Question: And the % susceptible isolates (Streptococcus pneumoniae [10])?
Answer: 0%

Question: And the percent susceptible isolates (Streptococcus pneumoniae [11])?
Answer: 23%

Question: And the % resistant isolates (Streptococcus pneumoniae [12])?
Answer: 0%

Question: And the MIC90 (Streptococcus pneumoniae [13])?
Answer: 1 µg/mL (≈ 2.99 µM)

Question: What about the % resistant isolates (Streptococcus pneumoniae [14]) of the same compound?
Answer: 0%

Question: What about the MIC90 (Streptococcus pneumoniae [15]) of the same compound?
Answer: > 4 µg/mL

Question: And the % susceptible isolates (Streptococcus pneumoniae [16])?
Answer: 100%

Question: And the % resistant isolates (Streptococcus pneumoniae [17]; [28])?
Answer: 100%

Question: What about the MIC90 (Streptococcus pneumoniae [27]) of the same compound?
Answer: ≤ 0.03 µg/mL

Question: And the percent susceptible isolates (Streptococcus pneumoniae [18])?
Answer: 13%

Question: What about the % resistant isolates (Streptococcus pneumoniae [19]; Streptococcus pneumoniae, serotype 19A) of the same compound?
Answer: 50%

Question: And the % susceptible isolates (Streptococcus pneumoniae [20])?
Answer: 100%

Question: And the MIC90 (Streptococcus pneumoniae [21])?
Answer: 4 µg/mL (≈ 12 µM)

Question: And the MIC90 (Streptococcus pneumoniae [22])?
Answer: 0.5 µg/mL (≈ 1.5 µM)

Question: And the MIC90 (Streptococcus pneumoniae [23])?
Answer: 0.5 µg/mL (≈ 1.5 µM)

Question: What about the MIC90 (Streptococcus pneumoniae [24]) of the same compound?
Answer: 2 µg/mL (≈ 5.98 µM)

Question: And the percent susceptible isolates (Streptococcus pneumoniae [25])?
Answer: 57%

Question: And the % resistant isolates (Streptococcus pneumoniae [26]; Streptococcus pneumoniae, serotype 6A/C)?
Answer: 8%

Question: With `CC[C@H]1OC(=O)[C@H](C)C(=O)[C@H](C)[C@@H](O[C@@H]2O[C@H](C)C[C@H](N(C)C)[C@H]2O)[C@](C)(OC)C[C@@H](C)C(=O)[C@H](C)[C@H]2N(CCCCn3cnc(-c4cccnc4)c3)C(=O)O[C@]12C` [TELITHROMYCIN] as the compound, how does the % susceptible isolates (Streptococcus pneumoniae [1]) read?
Answer: 0.25%

Question: What about the percent susceptible isolates (Streptococcus pneumoniae [2]) of the same compound?
Answer: 100%

Question: And the MIC90 (Streptococcus pneumoniae [3])?
Answer: ≤ 0.12 µg/mL

Question: And the percent susceptible isolates (Streptococcus pneumoniae [4])?
Answer: 100%

Question: And the % resistant isolates (Streptococcus pneumoniae [5])?
Answer: 0%

Question: What about the % resistant isolates (Streptococcus pneumoniae [6]) of the same compound?
Answer: 0%

Question: What about the % resistant isolates (Streptococcus pneumoniae [7]) of the same compound?
Answer: 0%

Question: What about the % resistant isolates (Streptococcus pneumoniae [8]) of the same compound?
Answer: 0%

Question: What about the MIC90 (Streptococcus pneumoniae [9]) of the same compound?
Answer: ≤ 0.12 µg/mL

Question: And the % susceptible isolates (Streptococcus pneumoniae [10]; [28])?
Answer: 100%

Question: And the percent susceptible isolates (Streptococcus pneumoniae [11])?
Answer: 100%

Question: What about the % resistant isolates (Streptococcus pneumoniae [12]) of the same compound?
Answer: 0%

Question: And the MIC90 (Streptococcus pneumoniae [13])?
Answer: 0.25 µg/mL (≈ 0.308 µM)

Question: And the % resistant isolates (Streptococcus pneumoniae [14])?
Answer: 0%

Question: And the MIC90 (Streptococcus pneumoniae [15])?
Answer: 1 µg/mL (≈ 1.23 µM)

Question: And the % susceptible isolates (Streptococcus pneumoniae [16])?
Answer: 100%

Question: And the % resistant isolates (Streptococcus pneumoniae [17])?
Answer: 0%

Question: And the percent susceptible isolates (Streptococcus pneumoniae [18])?
Answer: 99%

Question: And the % resistant isolates (Streptococcus pneumoniae [19])?
Answer: 0%

Question: What about the % susceptible isolates (Streptococcus pneumoniae [20]) of the same compound?
Answer: 100%

Question: What about the MIC90 (Streptococcus pneumoniae [21]) of the same compound?
Answer: 1 µg/mL (≈ 1.23 µM)

Question: And the MIC90 (Streptococcus pneumoniae [22])?
Answer: ≤ 0.12 µg/mL

Question: And the MIC90 (Streptococcus pneumoniae [23])?
Answer: ≤ 0.12 µg/mL

Question: And the MIC90 (Streptococcus pneumoniae [24])?
Answer: 0.5 µg/mL (≈ 0.616 µM)

Question: What about the percent susceptible isolates (Streptococcus pneumoniae [25]) of the same compound?
Answer: 100%

Question: What about the % resistant isolates (Streptococcus pneumoniae [26]) of the same compound?
Answer: 0%

Source: ChEMBL document CHEMBL1275437, “Prevalence of serotype 19A Streptococcus pneumoniae among isolates from U.S. children in 2005-2006 and activity of faropenem” (2008)
